From patent US9580426B2, “Compounds that expand hematopoietic stem cells” (Novartis AG, priority 2008, dated 2017)

Legend:
human AHR = molecular target: T1, human AHR (Homo sapiens, UniProt P35869); experiment: cell-based; format: cell-based
T1 construct: endogenous in cells; host or cells: unnamed human cells carrying an AHR-dependent luciferase reporter
T1 sequence (P35869 11-848): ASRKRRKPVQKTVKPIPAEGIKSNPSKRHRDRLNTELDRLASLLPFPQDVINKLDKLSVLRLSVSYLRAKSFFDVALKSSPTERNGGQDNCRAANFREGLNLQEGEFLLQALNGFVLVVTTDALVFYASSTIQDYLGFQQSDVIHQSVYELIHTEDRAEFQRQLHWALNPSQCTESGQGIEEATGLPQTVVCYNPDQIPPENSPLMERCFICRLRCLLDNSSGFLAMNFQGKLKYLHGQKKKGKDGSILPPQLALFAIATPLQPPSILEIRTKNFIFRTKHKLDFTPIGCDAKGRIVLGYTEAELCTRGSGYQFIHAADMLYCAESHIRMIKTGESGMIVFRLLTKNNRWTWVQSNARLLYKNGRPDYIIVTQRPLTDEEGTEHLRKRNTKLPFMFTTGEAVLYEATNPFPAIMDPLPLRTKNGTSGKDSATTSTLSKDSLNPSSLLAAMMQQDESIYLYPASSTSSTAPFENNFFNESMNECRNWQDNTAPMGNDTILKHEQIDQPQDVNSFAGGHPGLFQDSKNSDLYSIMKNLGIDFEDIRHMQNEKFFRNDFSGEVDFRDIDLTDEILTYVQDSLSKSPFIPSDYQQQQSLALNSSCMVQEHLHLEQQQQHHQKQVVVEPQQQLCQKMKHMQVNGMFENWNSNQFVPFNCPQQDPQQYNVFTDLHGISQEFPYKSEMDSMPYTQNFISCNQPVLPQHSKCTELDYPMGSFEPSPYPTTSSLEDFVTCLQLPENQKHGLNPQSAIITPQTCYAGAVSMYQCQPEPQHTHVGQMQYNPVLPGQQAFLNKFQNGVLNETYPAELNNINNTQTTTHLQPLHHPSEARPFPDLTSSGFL
Procedure: Further, the ability of Example 1 to block 2,3,7,8-tetrachlorodibenzo-p-dioxin (TCDD, dioxin)-mediated CYP1B1 mRNA expression by qPCR in mPB-derived CD34^+ cells was determined. Treatment with TCDD (3 nM) caused a 4.5-fold increase in the level of CYP1B1 mRNA compared with the vehicle control (0.01% toluene). […] To determine the effects of Example 1 in AHR transcription the ability of Example 1 to inhibit a dioxin-induced AHR dependent luciferase reporter gene assay was tested.

mPB and CB derived HSCs = experiment: Transplantation of cultured human CD34+ cells into NOD/SCID mice (engraftment); format: in vivo, human cells in NOD/SCID mice; settings: HSCs cultured at 1 micromolar, mPB 4 days, CB 21 days
Procedure: Transplantation of human CD34^+ cells into NOD.CB 17-Prkdc^scid mice (NOD/SCID): To assess the in vivo repopulating capacity of CD34^+ cells and their cultured progeny, uncultured CD34^+ or the progenies of cultured CD34^+ cells after 4 days (mPB) or 21 days (CB) with vehicle or a test compound were injected intravenously via the retro-orbital route into sub-lethally irradiated (3.0 Gy) 8- to 10-week-old NOD/SCID (for mPB HSC experiments) or NOD/SCIDgc−/− (for CB HSC experiments) mice. To monitor engraftment blood was drawn weekly via the retro-orbital and treated with erythrocyte lysis solution (Qiagen, Valencia, Calif.) to remove red blood cells, washed with staining media, and analyzed by flow Cytometry. Engraftment was measured by detection of anti-human CD45^+ cells in the blood. The mice are sacrificed at 10 weeks post-transplantation; BM is collected from both femurs and tibiae. BM cells are washed in staining media and stained with anti-human antibodies. Following incubation, the suspension is treated with erythrocyte lysis solution (Qiagen, Valencia, Calif.) to remove red blood cells, washed with staining media, and analyzed by flow Cytometry, as described earlier.

[1] = tested on: Primary adult CD34+ human hematopoietic stem cells (HSCs); experiment: % CD34+ assay: HSC expansion screen, dose response; format: cell-based; settings: Homo sapiens, Hematopoietic stem cell; dose response 1 nM to 10 μM; total number and/or percent of CD34+ cells
How it was run: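 Human CD34+ cells, chiefly MACS-enriched from G-CSF-mobilized peripheral blood, were grown at 37° C., 5% CO2 in serum-free StemSpan with TPO, IL-6, Flt-3 ligand and SCF (50 ng/mL each), plus compound or DMSO. Cultures were kept at 10^4–5×10^5 cells/mL and assessed by flow cytometry for CD34 expression. EC50 came from a 1 nM–10 μM dose response.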

EC50 (human AHR): 127 nM
dioxin-induced AHR dependent transcription (human AHR; 1 μM, cells expressing human AHR): completely abolished
EC50 [1]: 120 nM
SMILES: CC(C)n1cnc2c(NCCc3ccc(O)cc3)nc(-c3csc4ccccc34)nc21 [Example 1, 4-(2-(2-(benzo[b]thiophen-3-yl)-9-isopropyl-9H-purin-6-ylamino)ethyl)phenol]
agonist activity (induction of AHR dependent transcription) (human AHR; human cells): failed to induce AHR dependent transcription
percentage of human cells 10 weeks after engraftment (mPB and CB derived HSCs): statistically significant increase
